The target in test [1] is T1, RelA^NTD (E. coli RelA NTD, 1-385) (Escherichia coli, UniProt P0AG20).
T1 sequence (P0AG20 1-385): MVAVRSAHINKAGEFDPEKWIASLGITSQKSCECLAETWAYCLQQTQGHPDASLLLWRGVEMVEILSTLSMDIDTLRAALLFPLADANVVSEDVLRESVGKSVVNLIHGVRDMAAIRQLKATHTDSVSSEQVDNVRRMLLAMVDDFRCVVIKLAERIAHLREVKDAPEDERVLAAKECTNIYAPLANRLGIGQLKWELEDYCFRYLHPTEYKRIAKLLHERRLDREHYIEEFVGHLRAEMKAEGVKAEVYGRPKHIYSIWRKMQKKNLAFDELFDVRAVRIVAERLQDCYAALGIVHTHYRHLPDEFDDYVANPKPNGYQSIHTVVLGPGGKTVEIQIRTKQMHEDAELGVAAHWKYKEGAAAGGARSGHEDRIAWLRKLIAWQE
Put plainly: isothermal titration calorimetry. Format: binding. Background: Isothermal titration calorimetry measures the heat released or taken up as one component is titrated into another.

For test [2], the target named is Rel^NTD (B. subtilis Rel NTD, 1-373) (Bacillus subtilis, UniProt O54408). Put plainly: isothermal titration calorimetry. It counts as binding.
For test [3], the target named is B. subtilis Rel (full-length) (Bacillus subtilis, UniProt O54408). Kind of test: 3H-. It counts as biochemical. Particulars: 0.3 mM labelled compound; 1 mM ATP; 5 mM Mg2+; pH 7.5, 37 °C.
The target of test [4] is T2, E. coli RelA (full-length) (Escherichia coli, UniProt P0AG20).
T2 sequence (P0AG20 1-744): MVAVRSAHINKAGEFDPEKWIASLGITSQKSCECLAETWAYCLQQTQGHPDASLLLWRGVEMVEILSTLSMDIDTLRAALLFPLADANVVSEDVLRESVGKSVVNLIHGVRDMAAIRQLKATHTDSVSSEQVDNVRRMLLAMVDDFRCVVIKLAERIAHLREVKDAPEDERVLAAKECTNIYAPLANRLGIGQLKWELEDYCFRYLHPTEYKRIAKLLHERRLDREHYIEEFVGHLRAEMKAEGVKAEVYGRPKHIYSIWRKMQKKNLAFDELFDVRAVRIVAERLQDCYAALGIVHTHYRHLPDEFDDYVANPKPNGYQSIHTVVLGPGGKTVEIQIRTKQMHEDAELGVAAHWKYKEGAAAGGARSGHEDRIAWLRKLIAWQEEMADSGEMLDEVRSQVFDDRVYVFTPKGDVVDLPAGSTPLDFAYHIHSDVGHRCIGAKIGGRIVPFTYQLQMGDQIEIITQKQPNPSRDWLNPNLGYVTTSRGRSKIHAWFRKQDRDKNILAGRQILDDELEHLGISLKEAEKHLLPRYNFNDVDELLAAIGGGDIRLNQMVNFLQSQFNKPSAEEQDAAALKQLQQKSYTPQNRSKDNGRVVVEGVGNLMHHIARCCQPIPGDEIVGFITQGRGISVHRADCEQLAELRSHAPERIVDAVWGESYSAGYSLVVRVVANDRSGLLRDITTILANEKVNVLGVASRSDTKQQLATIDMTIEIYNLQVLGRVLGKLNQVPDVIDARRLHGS
Kind of test: 3H-. Format: biochemical. As to conditions: labelled compound; 1 mM ATP; 100 μM ppGpp or pppGpp added; 37 °C.

Chain of B. subtilis Rel (full-length) (O54408 whole entry): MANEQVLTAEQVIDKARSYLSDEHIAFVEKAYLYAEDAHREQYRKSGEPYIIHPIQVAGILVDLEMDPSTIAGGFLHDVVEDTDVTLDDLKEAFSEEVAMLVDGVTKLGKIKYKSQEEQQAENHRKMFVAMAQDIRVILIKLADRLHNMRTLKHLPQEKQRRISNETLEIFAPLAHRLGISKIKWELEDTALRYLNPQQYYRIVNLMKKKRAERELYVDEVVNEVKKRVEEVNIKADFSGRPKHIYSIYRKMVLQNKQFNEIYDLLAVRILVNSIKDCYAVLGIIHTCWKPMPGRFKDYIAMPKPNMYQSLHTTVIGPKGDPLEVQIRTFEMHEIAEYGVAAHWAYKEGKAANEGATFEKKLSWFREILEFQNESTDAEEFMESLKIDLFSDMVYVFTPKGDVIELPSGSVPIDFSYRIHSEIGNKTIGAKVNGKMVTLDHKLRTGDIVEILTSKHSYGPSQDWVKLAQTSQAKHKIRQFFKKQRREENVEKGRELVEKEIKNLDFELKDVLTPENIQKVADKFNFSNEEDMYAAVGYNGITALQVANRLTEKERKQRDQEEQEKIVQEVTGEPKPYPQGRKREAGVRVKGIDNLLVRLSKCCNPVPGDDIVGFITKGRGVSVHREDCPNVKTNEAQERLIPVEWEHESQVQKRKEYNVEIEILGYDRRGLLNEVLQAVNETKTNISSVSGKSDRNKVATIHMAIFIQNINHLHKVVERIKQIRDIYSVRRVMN
Chain of Rel^NTD (B. subtilis Rel NTD, 1-373) (O54408 1-373): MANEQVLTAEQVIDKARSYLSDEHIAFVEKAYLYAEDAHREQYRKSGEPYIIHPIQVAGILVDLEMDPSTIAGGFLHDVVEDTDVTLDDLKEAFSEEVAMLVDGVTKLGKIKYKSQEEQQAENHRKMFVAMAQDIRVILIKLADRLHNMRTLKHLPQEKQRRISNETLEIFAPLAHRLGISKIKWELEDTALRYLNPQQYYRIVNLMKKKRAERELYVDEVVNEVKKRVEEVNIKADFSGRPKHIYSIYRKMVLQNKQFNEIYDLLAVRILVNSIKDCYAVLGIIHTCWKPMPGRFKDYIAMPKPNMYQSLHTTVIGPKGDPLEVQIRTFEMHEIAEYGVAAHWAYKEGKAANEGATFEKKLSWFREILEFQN

What is called Kd is the equilibrium constant for the complex coming apart. High values mean weaker binding, low ones tighter binding. `Nc1nc2c(ncn2[C@@H]2O[C@H](COP(=O)(O)OP(=O)(O)OP(=O)(O)O)[C@@H](OP(=O)(O)OP(=O)(O)O)[C@H]2O)c(=O)[nH]1` [pppGpp]: the figures for the Kd in test [1] and in test [2] were 6.9 ± 0.9 µM and 10.6 ± 0.9 µM, respectively.
On to `Nc1nc2c(ncn2[C@@H]2O[C@H](COP(=O)(O)OP(=O)(O)OP(=O)(O)O)[C@@H](O)[C@H]2O)c(=O)[nH]1` [GTP], for which the “3H-(p)ppGpp synthesis assay, TLC and scintillation counting” value in test [3] is “B. subtilis Rel is moderately more efficient in converting GTP to pppGpp”.
As to `Nc1nc2c(ncn2[C@@H]2O[C@H](COP(=O)(O)OP(=O)(O)O)[C@@H](O)[C@H]2O)c(=O)[nH]1` [GDP], in test [4], the “3H-(p)ppGpp synthesis assay, TLC and scintillation counting” value is reported as “the ppGpp alarmone is produced in situ from 3H-GDP”.

The values are drawn from article PMC7797070 (Nucleic Acids Research, 2020).
